Test results from patent US6410558B1, “Fungicides for the control of take-all disease of plants” (Monsanto Technology LLC, priority 1991, dated 2002).
Like-named read-outs stand apart in the source and are kept apart here.

Key:
[1] = test system: Gaeumannomyces graminis var. tritici (Ggt); assay: In vitro Assay: mycelial growth of Ggt on minimal media agar plates containing test compound; assay type: cell-based; conditions: dark, 19-20° C., 4 to 5 days, diameter of mycelial growth; for inhibition at 0.1 ppm / inhibition at 1 ppm / inhibition at 10 ppm: Gaeumannomyces graminis; for inhibition at 0.1 ppm: read-out: In vitro (ppm) 0.1, Percent Inhibition; for inhibition at 1 ppm: read-out: In vitro (ppm) 1, Percent Inhibition; for inhibition at 10 ppm: read-out: In vitro (ppm) 10, Percent Inhibition
Procedure, shortened: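 Ggt mycelial diameter read after 4 to 5 days in darkness at 19-20° C, from three 4-mm plugs placed on Czapek Dox minimal agar containing test compound delivered in acetone. Inhibition expressed as percent versus untreated plates, plug size (4 mm) subtracted from both.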

Ggt = assay: In vivo Assay: control of Ggt on wheat grown in pots of Ggt-infested soil, root disease rating; design: species or system Gaeumannomyces graminis var. tritici; conditions: for pest or weed control at 0.5 mg/pot: Gaeumannomyces graminis, 672 h, read-out: In vivo, percent disease control
Protocol: Compounds are tested for control of Ggt on ‘Bergen’ or ‘Anza’ varieties of wheat grown in 3-inch square pots containing soil infested with Ggt. The infestation is accomplished by mixing the soil with an inoculum prepared by growing Ggt on ¼ strength potato dextrose agar (4.875 g potato dextrose agar, 5.0 g Bacto agar, 500 mL distilled, deionized water) in plates and using plugs from the plates to infest sterile oats (400 cc whole oats, 350 mL deionized water, autoclaved). After a one-month incubation period at room temperature, the oats are dried and mixed with the soil at 4% v/v. Four wheat seeds are placed on top of the soil in each pot. The test compounds are prepared as an 1:9 acetone/water v/v solution containing 0.18% Tween® 20 to provide a treatment rate of 0.5 mg active ingredient per pot, treated with 3 mL test solution per pot. Five pots are used for each treatment level and the controls, which are untreated, inoculated and non-inoculated pots. After one hour drying time, the seeds are covered with more of the appropriate soil and a layer of vermiculite. The pots are placed in a growth chamber and watered each day. After four weeks, each pot is evaluated for evidence of disease by examination of the seminal roots of each plant under a dissecting microscope. A 0 to 5 rating scale having the following meanings is used:
0=no runner hyphae or lesions present
1=runner hyphae and a few small lesions present on <10% of root system
2=runner hyphae and small lesions present on 10-25% of root system
3=runner hyphae and lesions present on 25-50% of root system
4=runner hyphae and many, large, coalescing lesions on >50% of root system
5=root system and culm completely inundated with lesions and runner hyphae
From each set of five replicates a high and low score is eliminated and a replicate mean is calculated by the average of the remaining three scores. This mean score is then compared to the untreated control score and a percent disease control is calculated.

[2] = 0.5 mg active ingredient per pot, 'Bergen' or 'Anza' wheat in Ggt-infested soil, after four weeks, vs untreated control

Compound	inhibition at 0.1 ppm ([1]; 0.1 ppm in minimal media agar)	inhibition at 1 ppm ([1]; 1 ppm in minimal media agar)	inhibition at 10 ppm ([1]; 10 ppm in minimal media agar)	pest or weed control at 0.5 mg/pot (Ggt; [2])	In vitro (ppm) 0.1, Percent Inhibition ([1]; 0.1 ppm in minimal media agar)	In vitro (ppm) 1, Percent Inhibition ([1]; 1 ppm in minimal media agar)	In vitro (ppm) 10, Percent Inhibition ([1]; 10 ppm in minimal media agar)	In vivo, percent disease control (Ggt; [2])	pest or weed control at 0.5 mg/pot (Ggt; soil)
CCN(CC)C(=S)c1c(C)ccc(F)c1[Si](C)(C)C [Example 53, N,N-Diethyl-3-fluoro-6-methyl-2-(trimethylsilyl)thiobenzamide]	9%	19%	95%	65%					
CCN(CC)C(=O)c1c(CO)ccc(F)c1[Si](C)(C)C [Example 54, N,N-Diethyl-3-fluoro-6-(hydroxymethyl)-2-(trimethylsilyl)benzamide]	< 0%	2%	43%	52%					
CCN(CC)C(=O)c1c(CF)ccc(F)c1[Si](C)(C)C [Example 55, N,N-Diethyl-3-fluoro-6-(fluoromethyl)-2-(trimethylsilyl)benzamide]	49%	81%	100%	100%					
CCN(CC)C(=O)c1c(F)ccc(F)c1[Si](C)(C)C [Example 56, N,N-Diethyl-3,6-difluoro-2-(trimethylsilyl)benzamide]	10%	31%	74%	91%					
CCN(CC)C(=O)c1c(C(F)(F)F)cccc1[Si](C)(C)C [Example 61, N,N-Diethyl-2-(trimethylsilyl)-6-(trifluoromethyl)benzamide]	9%	29%	49%	1%					
CCN(CC)C(=O)c1c(C(F)(F)F)ccc(C(F)(F)F)c1[Si](C)(C)C [Example 62, N,N-Diethyl-2-(trimethylsilyl)-3,6-bis(trifluoromethyl)benzamide]	8%	3%	69%	9%					
CCN(CC)C(=O)c1c([Si](C)(C)C)ccc(C)c1Cl [Example 65, N,N-Diethyl-2-chloro-3-methyl-6-(trimethylsilyl)benzamide]	39%	56%	100%	95%					
CCN(CC)C(=O)c1c(Cl)cccc1[Si](CC)(CC)CC [Example 66, N,N-Diethyl-2-chloro-6-(triethylsilyl)benzamide]	< 0%	< 0%	58%	3%					
CCN(CC)C(=O)c1c(Cl)cccc1[Si](C)(C)c1ccccc1 [Example 67, N,N-Diethyl-2-chloro-6-(dimethylphenylsilyl)benzamide]	< 0%	19%	100%	< 0%					
CCN(CC)C(=O)c1c(Cl)cccc1[Si](C(C)C)(C(C)C)C(C)C [Example 68, N,N-Diethyl-2-chloro-6-[tris(1-methylethyl)silyl]benzamide]	8%	< 0%	41%	< 0%					
CCN(CC)C(=O)c1c(Cl)cccc1[Si](C)(C)CCl [Example 69, N,N-Diethyl-2-chloro-6-[(chloromethyl)dimethylsilyl]benzamide]	51%	81%	100%	67%					
CCN(CC)C(=O)c1c(Cl)ccc(C)c1[Si](C)(C)C [Example 71, N,N-Diethyl-6-chloro-3-methyl-2-(trimethylsilyl)benzamide]	14%	8%	< 0%	50%					
CCN(CC)C(=S)c1cccc(F)c1[Si](C)(C)C [Example 74, N,N-Diethyl-3-fluoro-2-(trimethylsilyl)thiobenzamide]	7%	31%	93%	47%					
CCSC(=O)c1c(Cl)cccc1[Si](C)(C)C [Example 77, 2-Chloro-6-(trimethylsilyl)benzenecarbothioic acid, S-ethyl ester]	13%	47%	100%	< 0%					
CCNC(=O)c1c(C(F)(F)F)cccc1[Si](C)(C)C [Example 82, N-Ethyl-2-(trifluoromethyl)-6-(trimethylsilyl)benzamide]	30%	< 0%	57%	58%					
CCNC(=O)c1c(Cl)cccc1[Si](C)(C)CCl [Example 83, N-Ethyl-2-chloro-6-[(chloromethyl)dimethylsilyl]benzamide]	100%	100%	100%	99%					
C=C[Si](C)(C)c1cccc(Cl)c1C(=O)NCC [Example 87, N-Ethyl-2-chloro-6-(ethenyldimethylsilyl)benzamide]	93%	100%	100%	96%					
CCNC(=O)c1c(Cl)cccc1OC(C)(C)C [Example 89, N-Ethyl-2-chloro-6-(1,1-dimethylethoxy)benzamide]	19%	85%	100%	96%					
CCCN(C(=O)c1c(Cl)cccc1[Si](C)(C)C)C(C)C [Example 95, 2-Chloro-N-(1-methylethyl)-N-propyl-6-(trimethylsilyl)benzamide]	< 0%	62%	100%	63%					
CCN(CC)C(=O)c1c(CF)cccc1[Si](C)(C)C [Example 98, N,N-Diethyl-2-(fluoromethyl)-6-(trimethylsilyl)benzamide]	22%	81%	100%	97%					
CN(C)NC(=O)c1c(Cl)cccc1[Si](C)(C)C [Example 99, 2-Chloro-6-(trimethylsilyl)-2,2-dimethylhydrazide-benzoic acid]					5%	72%	95%	59%	
CN(Cc1ccc(C(F)(F)F)cc1)C(=O)c1c(Cl)cccc1[Si](C)(C)C [Example 103, 2-Chloro-N-methyl-N-[[4-(trifluoromethyl)phenyl]-methyl]-6-(trimethylsilyl)-benzamide]	< 0%	55%	92%	26%					
C=CCNC(=O)c1c(Cl)cccc1[Si](C)(C)C [Example 106, 2-Chloro-N-2-propenyl-6-(trimethylsilyl)benzamide]	95%	95%	97%	100%					
CC(C)(C)OC(=O)Nc1c(Cl)cccc1[Si](C)(C)C [Example 111, [2-Chloro-6-(trimethylsilyl)phenyl]carbamic acid, 1,1-dimethylethyl ester]	14%	66%	100%						48%
